*1 amine or outer side, *2 acyl side, *3 side chain or, on linkers, in order; H or OH if unused. Where a SMILES comes first, the peptide text is derived from it. Bridges are numbered along the chain shown (N, C = ends). [ ]: non-standard residue; d: D form. Phe(3,4,5-F3) = N[C@@H](Cc1cc(F)c(F)c(F)c1)C(=O)O; NMePhe(4-F) = CN[C@@H](Cc1ccc(F)cc1)C(=O)O; d(cisHyp) = O=C(O)[C@H]1C[C@@H](O)CN1; NMeY = CN[C@@H](Cc1ccc(O)cc1)C(=O)O; NMeF = CN[C@@H](Cc1ccccc1)C(=O)O; X1 = O=C([C@H]1COCCN1[*:1])[*:2]; NMeNle = CCCC[C@H](NC)C(=O)O; dPip = O=C(O)[C@H]1CCCCN1; Orn = NCCC[C@H](N)C(=O)O; Dab = NCC[C@H](N)C(=O)O; Dap = NC[C@H](N)C(=O)O
Molecular target: T1, Human PD-L1/PD-1 (Homo sapiens, UniProt Q9NZQ7)
T1 construct: TVMV protease cleavage site (C); made in house; host or cells: HEK293T cells
T1 sequence (Q9NZQ7 with tags, fused parts or gaps): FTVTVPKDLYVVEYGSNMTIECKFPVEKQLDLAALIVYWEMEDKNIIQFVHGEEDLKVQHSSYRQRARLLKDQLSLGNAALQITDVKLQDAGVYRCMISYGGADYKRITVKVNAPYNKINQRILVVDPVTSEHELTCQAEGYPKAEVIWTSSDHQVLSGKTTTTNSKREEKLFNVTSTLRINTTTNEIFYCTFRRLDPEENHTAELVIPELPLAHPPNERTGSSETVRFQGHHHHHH
Assay: HTRF Human PD-L1/PD-1 binding assay (PD-1-Ig/PD-L1-His)
Details: PD-L1-His 10 nM, PD-1-Ig 20 nM; class symbol; read-out: HTRF Human PD-L1/PD-1 Binding Assay IC50 Range
How it was run: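 HTRF competition using HEK293T-expressed human PD-1(25-167)-Ig at 20 nM and PD-L1(18-239)-His at 10 nM, compound incubated first with PD-L1 for 15 min, then with PD-1 for 15 min. Signal read as 665/620 nm ratio 30 min after adding Eu anti-Ig and APC anti-His antibodies.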

| Compound | IC50 |
| --- | --- |
| CCCC[C@H]1C(=O)N2C[C@H](O)C[C@@H]2C(=O)N[C@@H](CC(=O)O)C(=O)N[C@@H](C(C)C)C(=O)N(C)[C@@H](Cc2ccccc2)C(=O)N[C@@H](CCC(=O)O)C(=O)N2CCOC[C@@H]2C(=O)N[C@@H](Cc2c[nH]c3ccccc23)C(=O)N[C@@H](Cc2ccc(O)cc2)C(=O)N[C@@H](CCCCN)C(=O)N[C@H](C(=O)NCC(N)=O)CSCC(=O)N[C@@H](Cc2cc(F)c(F)c(F)c2)C(=O)N(C)[C@@H](Cc2ccc(F)cc2)C(=O)N1C [Example 10592] ({CH2CO}-[Phe(3,4,5-F3)][NMePhe(4-F)][NMeNle][d(cisHyp)]DV[NMeF]E[X1]WYKCG-NH2; thioether N-13) | 1 to 9.9 nM |
| CCCC[C@H]1C(=O)N2CCC[C@@H]2C(=O)N[C@@H](CC(=O)O)C(=O)N[C@@H](C(C)C)C(=O)N(C)[C@@H](Cc2ccccc2)C(=O)N[C@@H](CCC(=O)O)C(=O)N2CCOC[C@@H]2C(=O)N[C@@H](Cc2c[nH]c3ccccc23)C(=O)N[C@@H](Cc2ccc(O)cc2)C(=O)N[C@@H](CC(C)C)C(=O)N[C@H](C(=O)NCC(N)=O)CSCC(=O)N[C@@H](Cc2cc(F)c(F)c(F)c2)C(=O)N(C)[C@@H](Cc2ccc(F)cc2)C(=O)N1C [Example 10593] ({CH2CO}-[Phe(3,4,5-F3)][NMePhe(4-F)][NMeNle][dP]DV[NMeF]E[X1]WYLCG-NH2; thioether N-13) | 1 to 9.9 nM |
| CCCC[C@H]1C(=O)N2C[C@H](O)C[C@@H]2C(=O)N[C@@H](CC(=O)O)C(=O)N[C@@H](C(C)C)C(=O)N(C)[C@@H](Cc2ccccc2)C(=O)N[C@@H](CCC(=O)O)C(=O)N2CCOC[C@@H]2C(=O)N[C@@H](Cc2c[nH]c3ccccc23)C(=O)N[C@@H](Cc2ccc(O)cc2)C(=O)N[C@@H](CC(C)C)C(=O)N[C@H](C(=O)NCC(N)=O)CSCC(=O)N[C@@H](Cc2cc(F)c(F)c(F)c2)C(=O)N(C)[C@@H](Cc2ccc(F)cc2)C(=O)N1C [Example 10594] ({CH2CO}-[Phe(3,4,5-F3)][NMePhe(4-F)][NMeNle][d(cisHyp)]DV[NMeF]E[X1]WYLCG-NH2; thioether N-13) | 1 to 9.9 nM |
| CCCC[C@H]1C(=O)N2C[C@H](O)C[C@@H]2C(=O)N[C@@H](CC(=O)O)C(=O)N[C@@H](C(C)C)C(=O)N(C)[C@@H](Cc2ccccc2)C(=O)N[C@@H](CCC(=O)O)C(=O)N2CCOC[C@@H]2C(=O)N[C@@H](Cc2c[nH]c3ccccc23)C(=O)N[C@@H](Cc2ccc(O)cc2)C(=O)N[C@@H](CCC(N)=O)C(=O)N[C@H](C(=O)NCC(N)=O)CSCC(=O)N[C@@H](Cc2cc(F)c(F)c(F)c2)C(=O)N(C)[C@@H](Cc2ccc(F)cc2)C(=O)N1C [Example 10595] ({CH2CO}-[Phe(3,4,5-F3)][NMePhe(4-F)][NMeNle][d(cisHyp)]DV[NMeF]E[X1]WYQCG-NH2; thioether N-13) | 1 to 9.9 nM |
| CCCC[C@H]1C(=O)N2CCC[C@@H]2C(=O)N[C@@H](CC(=O)O)C(=O)N[C@@H](C(C)C)C(=O)N(C)[C@@H](Cc2ccccc2)C(=O)N[C@@H](CCC(=O)O)C(=O)N2CCOC[C@@H]2C(=O)N[C@@H](Cc2c[nH]c3ccccc23)C(=O)N[C@@H](Cc2ccc(O)cc2)C(=O)N[C@@H](CCCN)C(=O)N[C@H](C(=O)NCC(N)=O)CSCC(=O)N[C@@H](Cc2cc(F)c(F)c(F)c2)C(=O)N(C)[C@@H](Cc2ccc(F)cc2)C(=O)N1C [Example 10596] ({CH2CO}-[Phe(3,4,5-F3)][NMePhe(4-F)][NMeNle][dP]DV[NMeF]E[X1]WY[Orn]CG-NH2; thioether N-13) | 1 to 9.9 nM |
| CCCC[C@H]1C(=O)N2CCC[C@@H]2C(=O)N[C@@H](CC(=O)O)C(=O)N[C@@H](C(C)C)C(=O)N(C)[C@@H](Cc2ccccc2)C(=O)N[C@@H](CCC(=O)O)C(=O)N2CCOC[C@@H]2C(=O)N[C@@H](Cc2c[nH]c3ccccc23)C(=O)N[C@@H](Cc2ccc(O)cc2)C(=O)N[C@@H](CC(N)=O)C(=O)N[C@H](C(=O)NCC(N)=O)CSCC(=O)N[C@@H](Cc2cc(F)c(F)c(F)c2)C(=O)N(C)[C@@H](Cc2ccc(F)cc2)C(=O)N1C [Example 10597] ({CH2CO}-[Phe(3,4,5-F3)][NMePhe(4-F)][NMeNle][dP]DV[NMeF]E[X1]WYNCG-NH2; thioether N-13) | 1 to 9.9 nM |
| CCCC[C@H]1C(=O)N2CCC[C@@H]2C(=O)N[C@@H](CC(=O)O)C(=O)N[C@@H](C(C)C)C(=O)N(C)[C@@H](Cc2ccccc2)C(=O)N[C@@H](CCC(=O)O)C(=O)N2CCOC[C@@H]2C(=O)N[C@@H](Cc2c[nH]c3ccccc23)C(=O)N[C@@H](Cc2ccc(O)cc2)C(=O)N[C@@H](CCCCN)C(=O)N[C@H](C(=O)NCC(N)=O)CSCC(=O)N[C@@H](Cc2cc(F)c(F)c(F)c2)C(=O)N(C)[C@@H](Cc2ccc(F)cc2)C(=O)N1C [Example 10598] ({CH2CO}-[Phe(3,4,5-F3)][NMePhe(4-F)][NMeNle][dP]DV[NMeF]E[X1]WYKCG-NH2; thioether N-13) | 1 to 9.9 nM |
| CCCC[C@H]1C(=O)N2CCC[C@@H]2C(=O)N[C@@H](CC(=O)O)C(=O)N[C@@H](C(C)C)C(=O)N(C)[C@@H](Cc2ccccc2)C(=O)N[C@@H](CCC(=O)O)C(=O)N2CCOC[C@@H]2C(=O)N[C@@H](Cc2c[nH]c3ccccc23)C(=O)N[C@@H](Cc2ccc(O)cc2)C(=O)N[C@@H](CC(C)C)C(=O)N[C@H](C(=O)NCC(N)=O)CSCC(=O)N[C@@H](Cc2cc(F)c(F)c(F)c2)C(=O)N(C)[C@@H](Cc2ccc(O)cc2)C(=O)N1C [Example 10599] ({CH2CO}-[Phe(3,4,5-F3)][NMeY][NMeNle][dP]DV[NMeF]E[X1]WYLCG-NH2; thioether N-13) | 1 to 9.9 nM |
| CCCC[C@H]1C(=O)N2CCC[C@@H]2C(=O)N[C@@H](CC(=O)O)C(=O)N[C@@H](C(C)C)C(=O)N(C)[C@@H](Cc2ccccc2)C(=O)N[C@@H](CCC(=O)O)C(=O)N2CCCC[C@@H]2C(=O)N[C@@H](Cc2c[nH]c3ccccc23)C(=O)N[C@@H](Cc2ccc(O)cc2)C(=O)N[C@@H](CCN)C(=O)N[C@H](C(=O)NCC(N)=O)CSCC(=O)N[C@@H](Cc2cc(F)c(F)c(F)c2)C(=O)N(C)[C@@H](Cc2ccc(O)cc2)C(=O)N1C [Example 10600] ({CH2CO}-[Phe(3,4,5-F3)][NMeY][NMeNle][dP]DV[NMeF]E[dPip]WY[Dab]CG-NH2; thioether N-13) | 1 to 9.9 nM |
| CCCC[C@H]1C(=O)N2CCC[C@@H]2C(=O)N[C@@H](CC(=O)O)C(=O)N[C@@H](C(C)C)C(=O)N(C)[C@@H](Cc2ccccc2)C(=O)N[C@@H](CCC(=O)O)C(=O)N2CCCC[C@@H]2C(=O)N[C@@H](Cc2c[nH]c3ccccc23)C(=O)N[C@@H](Cc2ccc(O)cc2)C(=O)N[C@@H](CCCN)C(=O)N[C@H](C(=O)NCC(N)=O)CSCC(=O)N[C@@H](Cc2cc(F)c(F)c(F)c2)C(=O)N(C)[C@@H](Cc2ccc(O)cc2)C(=O)N1C [Example 10601] ({CH2CO}-[Phe(3,4,5-F3)][NMeY][NMeNle][dP]DV[NMeF]E[dPip]WY[Orn]CG-NH2; thioether N-13) | 1 to 9.9 nM |
| CCCC[C@H]1C(=O)N2CCC[C@@H]2C(=O)N[C@@H](CC(=O)O)C(=O)N[C@@H](C(C)C)C(=O)N(C)[C@@H](Cc2ccccc2)C(=O)N[C@@H](CCC(=O)O)C(=O)N2CCCC[C@@H]2C(=O)N[C@@H](Cc2c[nH]c3ccccc23)C(=O)N[C@@H](Cc2ccc(O)cc2)C(=O)N[C@@H](CC(C)C)C(=O)N[C@H](C(=O)NCC(N)=O)CSCC(=O)N[C@@H](Cc2cc(F)c(F)c(F)c2)C(=O)N(C)[C@@H](Cc2ccc(OC)cc2)C(=O)N1C [Example 10602] ({CH2CO}-[Phe(3,4,5-F3)][NMeY](Me)[NMeNle][dP]DV[NMeF]E[dPip]WYLCG-NH2; thioether N-13) | 1 to 9.9 nM |
| CCCC[C@H]1C(=O)N2CCC[C@@H]2C(=O)N[C@@H](CC(=O)O)C(=O)N[C@@H](C(C)C)C(=O)N(C)[C@@H](Cc2ccccc2)C(=O)N[C@@H](CCC(=O)O)C(=O)N2CCCC[C@@H]2C(=O)N[C@@H](Cc2c[nH]c3ccccc23)C(=O)N[C@@H](Cc2ccc(O)cc2)C(=O)N[C@@H](CCN)C(=O)N[C@H](C(=O)NCC(N)=O)CSCC(=O)N[C@@H](Cc2cc(F)c(F)c(F)c2)C(=O)N(C)[C@@H](Cc2ccc(OC)cc2)C(=O)N1C [Example 10603] ({CH2CO}-[Phe(3,4,5-F3)][NMeY](Me)[NMeNle][dP]DV[NMeF]E[dPip]WY[Dab]CG-NH2; thioether N-13) | 1 to 9.9 nM |
| CCCC[C@H]1C(=O)N2CCC[C@@H]2C(=O)N[C@@H](CC(=O)O)C(=O)N[C@@H](C(C)C)C(=O)N(C)[C@@H](Cc2ccccc2)C(=O)N[C@@H](CCC(=O)O)C(=O)N2CCOC[C@@H]2C(=O)N[C@@H](Cc2c[nH]c3ccccc23)C(=O)N[C@@H](Cc2ccc(O)cc2)C(=O)N[C@@H](CCN)C(=O)N[C@H](C(=O)NCC(N)=O)CSCC(=O)N[C@@H](Cc2cc(F)c(F)c(F)c2)C(=O)N(C)[C@@H](Cc2ccc(F)cc2)C(=O)N1C [Example 10605] ({CH2CO}-[Phe(3,4,5-F3)][NMePhe(4-F)][NMeNle][dP]DV[NMeF]E[X1]WY[Dab]CG-NH2; thioether N-13) | 1 to 9.9 nM |
| CCCC[C@H]1C(=O)N2CCC[C@@H]2C(=O)N[C@@H](CC(=O)O)C(=O)N[C@@H](C(C)C)C(=O)N(C)[C@@H](Cc2ccccc2)C(=O)N[C@@H](CCC(=O)O)C(=O)N2CCOC[C@@H]2C(=O)N[C@@H](Cc2c[nH]c3ccccc23)C(=O)N[C@@H](Cc2ccc(O)cc2)C(=O)N[C@@H](CN)C(=O)N[C@H](C(=O)NCC(N)=O)CSCC(=O)N[C@@H](Cc2cc(F)c(F)c(F)c2)C(=O)N(C)[C@@H](Cc2ccc(F)cc2)C(=O)N1C [Example 10606] ({CH2CO}-[Phe(3,4,5-F3)][NMePhe(4-F)][NMeNle][dP]DV[NMeF]E[X1]WY[Dap]CG-NH2; thioether N-13) | 1 to 9.9 nM |
| CCCC[C@H]1C(=O)N2CCC[C@@H]2C(=O)N[C@@H](CC(=O)O)C(=O)N[C@@H](C(C)C)C(=O)N(C)[C@@H](Cc2ccccc2)C(=O)N[C@@H](CCC(=O)O)C(=O)N2CCOC[C@@H]2C(=O)N[C@@H](Cc2c[nH]c3ccccc23)C(=O)N[C@@H](Cc2ccc(O)cc2)C(=O)N[C@@H](CCC(N)=O)C(=O)N[C@H](C(=O)NCC(N)=O)CSCC(=O)N[C@@H](Cc2cc(F)c(F)c(F)c2)C(=O)N(C)[C@@H](Cc2ccc(F)cc2)C(=O)N1C [Example 10607] ({CH2CO}-[Phe(3,4,5-F3)][NMePhe(4-F)][NMeNle][dP]DV[NMeF]E[X1]WYQCG-NH2; thioether N-13) | 1 to 9.9 nM |
